Consider nine molecules from article PMC4190524, “The Flux of Select NSAIDs through Silicone Membranes from Mineral Oil” (Pharmaceutics, 2014).

Series [1] is described as follows: Calculated solubilities in octanol, pH 7.4 buffer and acidic water. The series is classed as physicochemical. The settings on record: data from Wenkers and Lippold 1999; for log SOCT: solubility in octanol, calculated from log KOCT:MO and log SMO; for log S7.4: solubility in pH 7.4 phosphate buffer, calculated from log SOCT − log KOCT:7.4; for log S1.0: solubility in acidic water (pH 1.0), calculated from log SMO − log KMO:1.0. The method, then:
Experimental solubility in mineral oil from Wenkers and Lippold was converted to units of mM from mg/dL. The values of log S7.4 were calculated from log SOCT − log KOCT:7.4, the values of log SOCT were calculated from log KOCT:MO + log SMO, and the values of log S1.0 were calculated from log SMO − log KMO:1.0.

Series [2] in a line: Maximum flux through silicone membranes from mineral oil (Franz diffusion cells).
Details of series [3]: method as in Wenkers and Lippold 1999 [6]. To be noted: log maximum flux through human skin in vivo from mineral oil; ref Wenkers and Lippold 1999 [6]; cited from earlier work.
Series [4] in a line: Stability in pH 7.1 phosphate buffer (receptor phase). It is filed as physicochemical. To be noted: measured after 24 h as salicylic acid. As to the method:
Molar extinction coefficients for the compounds in pH 7.1 phosphate buffer, the receptor phase, were determined experimentally. Each compound was initially dissolved in a small volume of acetonitrile (except Diflunisal, which was dissolved in ethanol). These solutions were diluted further with the buffer solution to concentrations that would produce accurate UV absorptions. A plot of absorbance versus concentration produced the slope in units of M^−1. There was only one instance of a major variation in this procedure. […] Thus, the molar extinction coefficient and the concentrations measured after 24 h were that of salicylic acid.

Series [5] is described as follows: Calculated log partition coefficients. The settings on record: data from Wenkers and Lippold 1999; for log KMO:1.0: mineral oil:acidic water (pH 1.0) partition coefficient, calculated from log KOCT:1.0 − log KOCT:MO; for log KOCT:MO: octanol:mineral oil partition coefficient, calculated from log KOCT:1.0 − log KMO:1.0. It is filed as physicochemical.
For series [6] the following is noted: pH 7.1.
Where [7] appears, read: log maximum flux through silicone membrane from mineral oil suspension, 32 °C, pH 7.1 phosphate buffer receptor phase, measured directly.

Read-outs that look alike come from different tables or passages of the source.

Consider `CC(=O)Oc1ccccc1C(=O)O` [Aspirin], for which, in series [1], the “log SOCT” value is 3.14 mM and the “log S7.4” value was 5.18 mM. Besides, the “log JMPMO” value in series [2] (setting [7]) is on record as −1.18 µmol cm^−2 h^−1. Moreover, the “log JMHMO” value in series [3] is −1.72 µmol cm^−2 h^−1. In addition, the “stability in phosphate buffer” value in series [4] was “readily hydrolyzed to salicylic acid and acetic acid”. Also, in series [5], the “log KMO:1.0” value is given as −2.02 and the “log KOCT:MO” value was 3.96.
For the molecule `O=C(O)Cc1ccccc1Nc1c(Cl)cccc1Cl` [Diclofenac], in series [1], the “log S1.0” value is listed as −2.43 mM, the “log SOCT” value is on record as 1.89 mM and the “log S7.4” value is listed as −0.09 mM. Also, the “log JMPMO” value in series [2] (setting [7]) is reported as −1.91 µmol cm^−2 h^−1. In series [3], the “log JMHMO” value is −2.89 µmol cm^−2 h^−1. For the same molecule, in series [5], the “log KMO:1.0” value is listed as 1.41 and the “log KOCT:MO” value is listed as 2.91.
As for `O=C(O)c1cc(-c2ccc(F)cc2F)ccc1O` [Diflunisal], in series [1], the “log S1.0” value was −2.05 mM, the “log SOCT” value is 2.19 mM and the “log S7.4” value was 1.61 mM. Further, the “log JMPMO” value in series [2] (setting [7]) is on record as −1.69 µmol cm^−2 h^−1. In addition, in series [3], the “log JMHMO” value is given as −2.44 µmol cm^−2 h^−1. In series [5], the “log KMO:1.0” value is on record as 0.88 and the “log KOCT:MO” value was 3.36.
In the case of `O=C(O)c1ccccc1Nc1cccc(C(F)(F)F)c1` [Flufenamic Acid], in series [1], the “log S1.0” value is recorded as −2.21 mM, the “log SOCT” value is listed as 2.46 mM and the “log S7.4” value is listed as 0.31 mM. Further, the “log JMPMO” value in series [2] (setting [7]) is −0.60 µmol cm^−2 h^−1. Moreover, the “log JMHMO” value in series [3] is −1.86 µmol cm^−2 h^−1. Also, in series [5], the “log KMO:1.0” value is listed as 2.74 and the “log KOCT:MO” value is reported as 1.93.
Consider `CC(C)Cc1ccc(C(C)C(=O)O)cc1` (centres unmarked) [Ibuprofen], for which, in series [1], the “log S1.0” value is given as −0.97 mM, the “log SOCT” value is 3.24 mM and the “log S7.4” value is 2.02 mM. Besides, the “log JMPMO” value in series [2] (setting [7]) is on record as 0.34 µmol cm^−2 h^−1. Also, the “log JMHMO” value in series [3] is −0.25 µmol cm^−2 h^−1. In addition, in series [5], the “log KMO:1.0” value is recorded as 3.06 and the “log KOCT:MO” value is 1.15.
For `CC(C(=O)O)c1cccc(C(=O)c2ccccc2)c1` (centres unmarked) [Ketoprofen], the “log JMPMO” value in series [2] (setting [7]) was −1.18 µmol cm^−2 h^−1.
Regarding `COc1ccc2cc(CCC(C)=O)ccc2c1` [Nabumetone], in series [1], the “log S1.0” value is recorded as −1.53 mM, the “log SOCT” value was 1.76 mM and the “log S7.4” value is −1.12 mM. Moreover, the “log JMPMO” value in series [2] (first procedure, 3 h collection intervals) is listed as −1.55. Further, in series [2] (setting [7]), the “log JMPMO” value is −1.53 µmol cm^−2 h^−1. The “log JMPMO” value in series [2] (repeat diffusion cell experiment with 2 h collection intervals, receptor phases ≤20% saturation) is −1.53. Moreover, the “log JMHMO” value in series [3] was −1.10 µmol cm^−2 h^−1. Also, in series [5], the “log KMO:1.0” value is given as 2.72 and the “log KOCT:MO” value is reported as 0.57.
`COc1ccc2cc([C@H](C)C(=O)O)ccc2c1` [Naproxen]: the “log JMPMO” value in series [6] is listed as −1.46 µmol cm^−2 h^−1.
As for `CN1C(C(=O)Nc2ccccn2)=C(O)c2ccccc2S1(=O)=O` [Piroxicam], in series [1], the “log S1.0” value is recorded as −0.94 mM, the “log SOCT” value is recorded as 0.75 mM and the “log S7.4” value is given as 0.95 mM. Also, the “log JMPMO” value in series [2] (setting [7]) was −2.08 µmol cm^−2 h^−1. Further, the “log JMHMO” value in series [3] is −2.40 µmol cm^−2 h^−1. Moreover, in series [5], the “log KMO:1.0” value is reported as 0.20 and the “log KOCT:MO” value is 1.49.
